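Method: 48-hour compound exposure of cells in 96-well plates, five concentrations, linear interpolation of endpoints. At the GI50, growth is halved.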 Active and inactive are the calls of the source. Rule as the data show it: active = GI50 up to about 1.1 µM and inactive = higher.
Experiments:
Assay in all cases: NCI anticancer screen, dose series, 48 h
[1] = test system: HT-29
[2] = test system: M14
[3] = test system: SNB-75
[4] = test system: MDA-MB-435
[5] = test system: SK-OV-3
[6] = test system: SF-295
[7] = test system: NCI-H226
[8] = test system: ACHN
[9] = test system: HOP-62
[10] = test system: SN12C
[11] = test system: MOLT-4
[12] = test system: U-251
[13] = test system: DU-145
[14] = test system: BT-549
[15] = test system: COLO 205
[16] = test system: UACC-62
[17] = test system: NCI-H522
[18] = test system: HCC 2998
[19] = test system: MCF7
[20] = test system: PC-3
[21] = test system: SK-MEL-28
[22] = test system: IGROV-1
[23] = test system: HCT-15
[24] = test system: UACC-257
[25] = test system: SF-539
[26] = test system: NCI-H23
[27] = test system: KM12
[28] = test system: MDA-MB-231
[29] = test system: HOP-92
[30] = test system: CCRF-CEM
[31] = test system: OVCAR-5
[32] = test system: TK-10
[33] = test system: RXF 393
[34] = test system: SW-620
[35] = test system: EKVX
[36] = test system: SNB-19
[37] = test system: CAKI-1
[38] = test system: HL-60
[39] = test system: NCI/ADR-RES
[40] = test system: OVCAR-3
[41] = test system: SK-MEL-2
[42] = test system: SF-268
[43] = test system: SK-MEL-5
[44] = test system: UO-31
[45] = test system: MDA-N
[46] = test system: OVCAR-4
[47] = test system: A549
[48] = test system: LOX IMVI
[49] = test system: 786-0
[50] = test system: HCT-116
[51] = test system: NCI-H460
[52] = test system: OVCAR-8
[53] = test system: Hs-578T

**Q.** For CCOC(=O)Cc1csc2[n+]1C(=O)/C(=C\c1cccc(Cl)c1Cl)S2, which GI50 [1] is on record?
**A.** 21.8 µM (inactive)

**Q.** What about the GI50 [2] of the same compound?
**A.** 26.9 µM (inactive)

**Q.** What about the GI50 [3] of the same compound?
**A.** 23.8 µM (inactive)

**Q.** What about the GI50 [4] of the same compound?
**A.** 13.7 µM (inactive)

**Q.** And the GI50 [5]?
**A.** 17.3 µM (inactive)

**Q.** And the GI50 [6]?
**A.** 15.3 µM (inactive)

**Q.** And the GI50 [7]?
**A.** 14.8 µM (inactive)

**Q.** What about the GI50 [8] of the same compound?
**A.** 17.9 µM (inactive)

**Q.** What about the GI50 [9] of the same compound?
**A.** 20.8 µM (inactive)

**Q.** And the GI50 [10]?
**A.** 16.2 µM (inactive)

**Q.** And the GI50 [11]?
**A.** 10.3 µM (inactive)

**Q.** What about the GI50 [12] of the same compound?
**A.** 16.6 µM (inactive)

**Q.** What about the GI50 [13] of the same compound?
**A.** 16.9 µM (inactive)

**Q.** And the GI50 [14]?
**A.** 17.6 µM (inactive)

**Q.** What about the GI50 [15] of the same compound?
**A.** 1.7 µM (inactive)

**Q.** And the GI50 [16]?
**A.** 4.94 µM (inactive)

**Q.** What about the GI50 [17] of the same compound?
**A.** 14.8 µM (inactive)

**Q.** And the GI50 [18]?
**A.** 17.7 µM (inactive)

**Q.** And the GI50 [19]?
**A.** 28.1 µM (inactive)

**Q.** What about the GI50 [20] of the same compound?
**A.** 13.3 µM (inactive)

**Q.** What about the GI50 [21] of the same compound?
**A.** 19.5 µM (inactive)

**Q.** What about the GI50 [22] of the same compound?
**A.** 20.1 µM (inactive)

**Q.** What about the GI50 [23] of the same compound?
**A.** 16.2 µM

**Q.** And the GI50 [24]?
**A.** 20.1 µM (inactive)

**Q.** And the GI50 [25]?
**A.** 22.3 µM (inactive)

**Q.** And the GI50 [26]?
**A.** 13.3 µM (inactive)

**Q.** And the GI50 [27]?
**A.** 15.4 µM (inactive)

**Q.** And the GI50 [28]?
**A.** 25.9 µM (inactive)

**Q.** What about the GI50 [29] of the same compound?
**A.** 6.85 µM (inactive)

**Q.** And the GI50 [30]?
**A.** 12.7 µM (inactive)

**Q.** What about the GI50 [31] of the same compound?
**A.** 32.6 µM (inactive)

**Q.** What about the GI50 [32] of the same compound?
**A.** 16 µM (inactive)

**Q.** What about the GI50 [33] of the same compound?
**A.** 16.7 µM (inactive)

**Q.** And the GI50 [34]?
**A.** 18.6 µM (inactive)

**Q.** What about the GI50 [35] of the same compound?
**A.** 17.2 µM (inactive)

**Q.** And the GI50 [36]?
**A.** 21 µM (inactive)

**Q.** And the GI50 [37]?
**A.** 23.6 µM (inactive)

**Q.** And the GI50 [38]?
**A.** 19.5 µM (inactive)

**Q.** What about the GI50 [39] of the same compound?
**A.** 16.7 µM (inactive)

**Q.** What about the GI50 [40] of the same compound?
**A.** 7.05 µM (inactive)

**Q.** What about the GI50 [41] of the same compound?
**A.** 10.6 µM (inactive)

**Q.** What about the GI50 [42] of the same compound?
**A.** 29.2 µM (inactive)

**Q.** And the GI50 [43]?
**A.** 8.93 µM (inactive)

**Q.** And the GI50 [44]?
**A.** 12.7 µM (inactive)

**Q.** And the GI50 [45]?
**A.** 17.7 µM (inactive)

**Q.** And the GI50 [46]?
**A.** 11.6 µM (inactive)

**Q.** What about the GI50 [47] of the same compound?
**A.** 14.8 µM (inactive)

**Q.** What about the GI50 [48] of the same compound?
**A.** 18.4 µM (inactive)

**Q.** And the GI50 [49]?
**A.** 15.8 µM (inactive)

**Q.** What about the GI50 [50] of the same compound?
**A.** 12.7 µM (inactive)

**Q.** And the GI50 [51]?
**A.** 14.9 µM (inactive)

**Q.** And the GI50 [52]?
**A.** 19.5 µM (inactive)

**Q.** And the GI50 [53]?
**A.** 29.5 µM (inactive)

From ChEMBL document CHEMBL1201862, “PubChem BioAssay data set” (2004)
